Test results: the CheMixHub ionic liquid set
“And” between values parts separate entries of the source, which are not always exact repeats. Identical values can stand only once. ± gives the uncertainty stated by the source.

Assay: xn = mol fraction of the nth substance listed
[1] = 308.15 K, 101 kPa, x1 = 6.584e-05
[2] = 308.15 K, 101 kPa, x1 = 0.0001326

CCCC[n+]1ccn(C)c1.[Br-] + O
viscosity (288.15 K, 100 kPa, x1 = 0.00126): 1.159 ± 0.044 mPa·s | viscosity (293.15 K, 100 kPa, x1 = 0.0009002): 1.033 ± 0.032 mPa·s | viscosity (293.15 K, 100 kPa, x1 = 0.001799): 1.057 ± 0.032 mPa·s | viscosity (293.15 K, 100 kPa, x1 = 0.002696): 1.069 ± 0.032 mPa·s | viscosity (298.15 K, 100 kPa, x1 = 0.0001802): 0.916 ± 0.043 mPa·s | viscosity (298.15 K, 100 kPa, x1 = 0.0007203): 0.921 ± 0.043 mPa·s | viscosity (298.15 K, 100 kPa, x1 = 0.0009002): 0.918 ± 0.031 mPa·s | viscosity (298.15 K, 100 kPa, x1 = 0.00126): 0.93 ± 0.043 mPa·s | viscosity (298.15 K, 100 kPa, x1 = 0.001799): 0.938 ± 0.031 mPa·s | viscosity (298.15 K, 100 kPa, x1 = 0.002696): 1 ± 0.032 mPa·s | viscosity (298.15 K, 101 kPa, x1 = 1.982e-05): 0.888 ± 0.019 mPa·s | viscosity (298.15 K, 101 kPa, x1 = 3.243e-05): 0.889 ± 0.019 mPa·s | electrical conductivity (298.15 K, 101 kPa, x1 = 0.00999): 3.16 ± 0.01 S/m | electrical conductivity (298.15 K, 101 kPa, x2 = 0.9094): 6.16 ± 0.01 S/m | electrical conductivity (298.15 K, 101 kPa, x2 = 0.94): 6.13 ± 0.01 S/m | electrical conductivity (298.15 K, 101 kPa, x2 = 0.9612): 5.7 ± 0.01 S/m | electrical conductivity (298.15 K, 101 kPa, x2 = 0.9773): 4.79 ± 0.01 S/m | viscosity (298.15 K, 101.3 kPa, x1 = 0.000902): 0.911 ± 0.024 mPa·s | viscosity (298.15 K, 101.3 kPa, x1 = 0.0009056): 0.91 ± 0.024 mPa·s and 0.911 ± 0.024 mPa·s | viscosity (298.15 K, 101.3 kPa, x1 = 0.0009074): 0.911 ± 0.024 mPa·s | viscosity (298.15 K, 101.3 kPa, x1 = 0.000911): 0.91 ± 0.024 mPa·s | viscosity (298.15 K, 101.3 kPa, x1 = 0.00144): 0.933 ± 0.06 mPa·s and 0.936 ± 0.06 mPa·s | viscosity (298.15 K, 101.3 kPa, x1 = 0.001806): 0.934 ± 0.025 mPa·s and 0.935 ± 0.025 mPa·s | viscosity (298.15 K, 101.3 kPa, x1 = 0.001835): 0.923 ± 0.025 mPa·s | viscosity (298.15 K, 101.3 kPa, x1 = 0.001856): 0.932 ± 0.025 mPa·s | viscosity (298.15 K, 101.3 kPa, x1 = 0.0036): 0.966 ± 0.026 mPa·s | viscosity (298.15 K, 101.3 kPa, x1 = 0.003602): 0.961 ± 0.026 mPa·s | viscosity (298.15 K, 101.3 kPa, x1 = 0.003605): 0.961 ± 0.026 mPa·s and 0.963 ± 0.026 mPa·s | viscosity (298.15 K, 101.3 kPa, x1 = 0.005384): 0.994 ± 0.027 mPa·s | viscosity (298.15 K, 101.3 kPa, x1 = 0.005411): 0.997 ± 0.027 mPa·s and 0.998 ± 0.027 mPa·s | viscosity (298.15 K, 101.3 kPa, x1 = 0.005432): 1.004 ± 0.027 mPa·s | viscosity (303.15 K, 100 kPa, x1 = 0.0009002): 0.823 ± 0.031 mPa·s | viscosity (303.15 K, 100 kPa, x1 = 0.001799): 0.84 ± 0.031 mPa·s | viscosity (303.15 K, 100 kPa, x1 = 0.002696): 0.905 ± 0.031 mPa·s | viscosity (303.15 K, 100 kPa, x1 = 0.05): 2 ± 0.2 mPa·s | viscosity (303.15 K, 100 kPa, x1 = 0.0992): 3.31 ± 0.33 mPa·s | viscosity (303.15 K, 100 kPa, x1 = 0.3882): 31.2 ± 3.1 mPa·s | viscosity (308.15 K, 100 kPa, x1 = 0.0001802): 0.751 ± 0.043 mPa·s | viscosity (308.15 K, 100 kPa, x1 = 0.0007203): 0.756 ± 0.043 mPa·s | viscosity (308.15 K, 100 kPa, x1 = 0.0009002): 0.753 ± 0.031 mPa·s | viscosity (308.15 K, 100 kPa, x1 = 0.00126): 0.763 ± 0.043 mPa·s | viscosity (308.15 K, 100 kPa, x1 = 0.001799): 0.758 ± 0.031 mPa·s | viscosity (308.15 K, 100 kPa, x1 = 0.002696): 0.795 ± 0.031 mPa·s | viscosity (308.15 K, 101 kPa, x1 = 3.243e-05): 0.723 ± 0.016 mPa·s | electrical conductivity [1]: 0.0466 ± 0.00047 S/m | viscosity [1]: 0.727 ± 0.015 mPa·s | viscosity (308.15 K, 101 kPa, x1 = 6.667e-05): 0.727 ± 0.016 mPa·s | electrical conductivity [2]: 0.0915 ± 0.00093 S/m | viscosity [2]: 0.735 ± 0.016 mPa·s | viscosity (308.15 K, 101.3 kPa, x1 = 0.000902): 0.738 ± 0.02 mPa·s | viscosity (308.15 K, 101.3 kPa, x1 = 0.0009056): 0.735 ± 0.02 mPa·s and 0.736 ± 0.02 mPa·s | viscosity (308.15 K, 101.3 kPa, x1 = 0.0009074): 0.737 ± 0.02 mPa·s | viscosity (308.15 K, 101.3 kPa, x1 = 0.000911): 0.735 ± 0.02 mPa·s | viscosity (308.15 K, 101.3 kPa, x1 = 0.001806): 0.752 ± 0.02 mPa·s | viscosity (308.15 K, 101.3 kPa, x1 = 0.001835): 0.746 ± 0.02 mPa·s and 0.747 ± 0.02 mPa·s | viscosity (308.15 K, 101.3 kPa, x1 = 0.001856): 0.75 ± 0.02 mPa·s | viscosity (308.15 K, 101.3 kPa, x1 = 0.0036): 0.776 ± 0.021 mPa·s | viscosity (308.15 K, 101.3 kPa, x1 = 0.003602): 0.773 ± 0.021 mPa·s | viscosity (308.15 K, 101.3 kPa, x1 = 0.003605): 0.77 ± 0.021 mPa·s and 0.771 ± 0.021 mPa·s | viscosity (308.15 K, 101.3 kPa, x1 = 0.005384): 0.798 ± 0.021 mPa·s | viscosity (308.15 K, 101.3 kPa, x1 = 0.005411): 0.801 ± 0.021 mPa·s | viscosity (308.15 K, 101.3 kPa, x1 = 0.005432): 0.802 ± 0.021 mPa·s | viscosity (310.15 K, 101.3 kPa, x1 = 0.000902): 0.711 ± 0.019 mPa·s | viscosity (310.15 K, 101.3 kPa, x1 = 0.0009056): 0.707 ± 0.019 mPa·s | viscosity (310.15 K, 101.3 kPa, x1 = 0.0009074): 0.71 ± 0.019 mPa·s | viscosity (310.15 K, 101.3 kPa, x1 = 0.000911): 0.707 ± 0.019 mPa·s | viscosity (310.15 K, 101.3 kPa, x1 = 0.001806): 0.723 ± 0.019 mPa·s | viscosity (310.15 K, 101.3 kPa, x1 = 0.001835): 0.717 ± 0.019 mPa·s and 0.718 ± 0.019 mPa·s | viscosity (310.15 K, 101.3 kPa, x1 = 0.001856): 0.723 ± 0.019 mPa·s | viscosity (310.15 K, 101.3 kPa, x1 = 0.0036): 0.75 ± 0.02 mPa·s | viscosity (310.15 K, 101.3 kPa, x1 = 0.003602): 0.746 ± 0.02 mPa·s | viscosity (310.15 K, 101.3 kPa, x1 = 0.003605): 0.74 ± 0.02 mPa·s and 0.742 ± 0.02 mPa·s | viscosity (310.15 K, 101.3 kPa, x1 = 0.005384): 0.767 ± 0.021 mPa·s | viscosity (310.15 K, 101.3 kPa, x1 = 0.005411): 0.767 ± 0.021 mPa·s | viscosity (310.15 K, 101.3 kPa, x1 = 0.005432): 0.772 ± 0.021 mPa·s | viscosity (313.15 K, 100 kPa, x1 = 0.0009002): 0.676 ± 0.031 mPa·s | viscosity (313.15 K, 100 kPa, x1 = 0.001799): 0.689 ± 0.031 mPa·s | viscosity (313.15 K, 100 kPa, x1 = 0.002696): 0.749 ± 0.031 mPa·s | viscosity (313.15 K, 100 kPa, x1 = 0.3882): 20 ± 2 mPa·s | viscosity (313.15 K, 101.3 kPa, x1 = 0.00144): 0.58 ± 0.1 mPa·s and 0.695 ± 0.06 mPa·s and 0.697 ± 0.06 mPa·s | viscosity (318.15 K, 100 kPa, x1 = 0.0001802): 0.634 ± 0.042 mPa·s | viscosity (318.15 K, 100 kPa, x1 = 0.0007203): 0.64 ± 0.042 mPa·s | viscosity (318.15 K, 100 kPa, x1 = 0.0009002): 0.618 ± 0.031 mPa·s and 0.619 ± 0.031 mPa·s | viscosity (318.15 K, 100 kPa, x1 = 0.00126): 0.646 ± 0.042 mPa·s | viscosity (318.15 K, 100 kPa, x1 = 0.001799): 0.631 ± 0.031 mPa·s | viscosity (318.15 K, 100 kPa, x1 = 0.002696): 0.68 ± 0.031 mPa·s | viscosity (318.15 K, 101.3 kPa, x1 = 0.000902): 0.611 ± 0.016 mPa·s | viscosity (318.15 K, 101.3 kPa, x1 = 0.0009056): 0.608 ± 0.016 mPa·s and 0.609 ± 0.016 mPa·s | viscosity (318.15 K, 101.3 kPa, x1 = 0.0009074): 0.612 ± 0.016 mPa·s | viscosity (318.15 K, 101.3 kPa, x1 = 0.000911): 0.608 ± 0.016 mPa·s | viscosity (318.15 K, 101.3 kPa, x1 = 0.001806): 0.623 ± 0.017 mPa·s | viscosity (318.15 K, 101.3 kPa, x1 = 0.001835): 0.619 ± 0.017 mPa·s | viscosity (318.15 K, 101.3 kPa, x1 = 0.001856): 0.622 ± 0.017 mPa·s | viscosity (318.15 K, 101.3 kPa, x1 = 0.0036): 0.643 ± 0.017 mPa·s | viscosity (318.15 K, 101.3 kPa, x1 = 0.003602): 0.642 ± 0.017 mPa·s | viscosity (318.15 K, 101.3 kPa, x1 = 0.003605): 0.638 ± 0.017 mPa·s and 0.639 ± 0.017 mPa·s | viscosity (318.15 K, 101.3 kPa, x1 = 0.005384): 0.659 ± 0.018 mPa·s and 0.66 ± 0.018 mPa·s | viscosity (318.15 K, 101.3 kPa, x1 = 0.005411): 0.66 ± 0.018 mPa·s | viscosity (318.15 K, 101.3 kPa, x1 = 0.005432): 0.665 ± 0.018 mPa·s | viscosity (323.15 K, 100 kPa, x1 = 0.3882): 14.6 ± 1.5 mPa·s | viscosity (333.15 K, 100 kPa, x1 = 0.05): 1.04 ± 0.1 mPa·s | viscosity (333.15 K, 100 kPa, x1 = 0.0992): 1.66 ± 0.17 mPa·s | viscosity (333.15 K, 100 kPa, x1 = 0.1979): 3.69 ± 0.37 mPa·s | viscosity (333.15 K, 100 kPa, x1 = 0.2517): 4.94 ± 0.5 mPa·s | viscosity (333.15 K, 100 kPa, x1 = 0.3882): 10.6 ± 1.1 mPa·s
